The source made the active and inactive calls.
How the values were obtained:
[1] = target: 5-hydroxytryptamine receptor 2A (Mus musculus, UniProt P35363); type: functional, cell-based;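 note: CHO-K1 cells with tagged receptor and beta-arrestin; agonist potency measured as compound-induced activation of the receptor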
[2] = target: Mu-type opioid receptor (Homo sapiens, UniProt P35372); type: functional, cell-based;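 note: U2OS cells with beta-arrestin recruitment to OPRM1 by beta-gal complementation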
Sequence of Mu-type opioid receptor (P35372 whole entry): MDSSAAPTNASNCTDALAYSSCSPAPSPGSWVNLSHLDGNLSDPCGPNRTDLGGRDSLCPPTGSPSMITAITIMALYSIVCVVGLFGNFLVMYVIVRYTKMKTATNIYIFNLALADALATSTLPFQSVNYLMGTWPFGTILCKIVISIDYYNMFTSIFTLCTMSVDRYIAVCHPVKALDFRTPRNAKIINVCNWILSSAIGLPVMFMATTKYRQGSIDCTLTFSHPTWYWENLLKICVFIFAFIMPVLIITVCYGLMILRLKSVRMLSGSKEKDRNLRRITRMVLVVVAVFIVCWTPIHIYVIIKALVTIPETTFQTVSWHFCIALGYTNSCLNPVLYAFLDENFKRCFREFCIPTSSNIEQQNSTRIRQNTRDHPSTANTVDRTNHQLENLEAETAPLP

[3] = target: Prothrombin (Bos taurus, UniProt P00735); assay: thrombin inhibition, dose response, biochemical, fluorescence polarization, uHTS hits (AID 602369); type: functional
[4] = target: 72 kDa type IV collagenase (Homo sapiens, UniProt P08253); assay: Dose Response validation of uHTS RPN11 inhibitor hits using a MMP-2 Fluorescence assay.; type: functional
Sequence of 72 kDa type IV collagenase (P08253 whole entry): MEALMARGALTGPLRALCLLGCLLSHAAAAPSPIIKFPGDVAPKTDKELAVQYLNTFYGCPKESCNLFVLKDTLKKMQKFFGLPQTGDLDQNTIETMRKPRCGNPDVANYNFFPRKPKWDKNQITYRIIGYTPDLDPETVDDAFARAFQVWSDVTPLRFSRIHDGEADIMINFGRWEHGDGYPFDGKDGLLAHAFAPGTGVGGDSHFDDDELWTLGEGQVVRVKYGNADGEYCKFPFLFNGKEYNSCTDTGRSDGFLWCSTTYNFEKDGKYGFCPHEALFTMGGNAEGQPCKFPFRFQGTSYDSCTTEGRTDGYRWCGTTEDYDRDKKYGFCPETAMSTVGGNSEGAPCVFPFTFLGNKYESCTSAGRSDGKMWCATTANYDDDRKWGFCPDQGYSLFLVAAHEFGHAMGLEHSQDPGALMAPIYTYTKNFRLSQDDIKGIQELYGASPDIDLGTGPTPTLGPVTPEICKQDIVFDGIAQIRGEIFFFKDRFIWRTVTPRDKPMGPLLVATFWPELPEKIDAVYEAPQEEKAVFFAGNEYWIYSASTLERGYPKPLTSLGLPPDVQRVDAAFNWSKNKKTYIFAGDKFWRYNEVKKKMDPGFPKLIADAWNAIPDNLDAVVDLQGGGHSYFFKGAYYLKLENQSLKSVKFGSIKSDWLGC

[5] = target: 26S proteasome non-ATPase regulatory subunit 14 (Homo sapiens, UniProt O00487); assay: inhibition of proteasome subunit RPN11 – biochemical, fluorescence polarization, uHTS hits, confirmation (AID 602368); type: functional
Sequence of 26S proteasome non-ATPase regulatory subunit 14 (O00487 whole entry): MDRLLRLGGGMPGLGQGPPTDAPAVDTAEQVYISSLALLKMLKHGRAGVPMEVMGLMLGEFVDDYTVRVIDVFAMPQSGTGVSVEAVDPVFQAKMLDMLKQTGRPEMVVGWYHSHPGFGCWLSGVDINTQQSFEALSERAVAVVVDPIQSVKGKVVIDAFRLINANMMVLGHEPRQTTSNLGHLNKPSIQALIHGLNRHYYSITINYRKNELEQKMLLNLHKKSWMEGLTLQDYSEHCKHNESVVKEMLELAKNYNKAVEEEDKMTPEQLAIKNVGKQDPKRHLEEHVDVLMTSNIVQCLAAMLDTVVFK

[6] = growth suppression of beta-catenin-knockout colon cells, dose response, cell-based, HCT116, human colon tumor (AID 1045); type: functional;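 note: HCT116 colon tumor cells with beta catenin knocked out; cells exposed to compound for 60 hours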
[7] = cytotoxicity in HEK-293T cells, dose response, cytotoxicity control for BCR NF-kB inhibitor project, luminescence, B-cell screen hits (AID 489021); type: functional, cell-based;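 note: HEK-293T cells carrying an NF-kB luciferase reporter; cells exposed to compound for about 14 hours before viability readout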
[8] = target: Hepatocyte nuclear factor 4-alpha (Homo sapiens, UniProt P41235); type: functional, cell-based;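 note: biochemical luminescence-based dose-response counterscreen measuring inhibition of HNF4 dimerization, run alongside a screen for blockers of ABHD5–perilipin-5 interaction; split luciferase complementation of HNF4 fusion proteins in cell lysate measuring dimerization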
Sequence of Hepatocyte nuclear factor 4-alpha (P41235 whole entry, the tested form may be a part): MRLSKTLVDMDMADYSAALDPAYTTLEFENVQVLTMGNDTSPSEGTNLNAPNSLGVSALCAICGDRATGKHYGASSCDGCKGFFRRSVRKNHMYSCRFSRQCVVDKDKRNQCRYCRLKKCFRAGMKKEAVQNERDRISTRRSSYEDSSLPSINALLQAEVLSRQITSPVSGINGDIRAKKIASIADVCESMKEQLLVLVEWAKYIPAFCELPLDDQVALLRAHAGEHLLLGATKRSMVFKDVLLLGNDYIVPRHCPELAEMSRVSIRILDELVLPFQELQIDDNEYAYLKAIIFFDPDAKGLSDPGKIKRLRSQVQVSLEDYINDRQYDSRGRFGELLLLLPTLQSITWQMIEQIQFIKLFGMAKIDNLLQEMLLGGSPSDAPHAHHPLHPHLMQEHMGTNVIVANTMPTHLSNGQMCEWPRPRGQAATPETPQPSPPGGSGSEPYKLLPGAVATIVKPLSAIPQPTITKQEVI

[9] = growth suppression of PTEN-null colon cells, dose response, cell-based, HCT116 PTEN knockout (AID 1047); type: functional;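 note: HCT116 colon tumor cells with PTEN knocked out; cells exposed to compound for 60 hours before readout; potency for loss of cell viability measured by luminescence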
[10] = target: Botulinum neurotoxin type F (Clostridium botulinum, UniProt P30996); assay: High-throughput multiplex microsphere dose response for inhibitors of toxin protease, specifically Botulinum neurotoxin light chain F protease, compounds from Cherry Pick 02.; type: functional; conditions: read-out: EC50_MICROM
Sequence of Botulinum neurotoxin type F (P30996 1-436 limits assumed): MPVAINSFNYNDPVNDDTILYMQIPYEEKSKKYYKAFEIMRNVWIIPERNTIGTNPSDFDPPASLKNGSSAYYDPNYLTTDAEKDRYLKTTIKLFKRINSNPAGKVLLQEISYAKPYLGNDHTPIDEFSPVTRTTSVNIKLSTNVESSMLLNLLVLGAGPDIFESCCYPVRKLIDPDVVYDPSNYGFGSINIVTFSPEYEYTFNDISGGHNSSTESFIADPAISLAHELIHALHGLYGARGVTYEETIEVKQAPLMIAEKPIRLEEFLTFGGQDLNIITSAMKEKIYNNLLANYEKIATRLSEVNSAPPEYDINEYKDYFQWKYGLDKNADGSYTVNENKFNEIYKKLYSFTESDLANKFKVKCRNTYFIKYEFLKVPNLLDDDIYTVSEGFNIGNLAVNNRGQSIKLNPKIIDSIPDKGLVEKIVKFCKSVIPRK

[11] = target: T1, Polyadenylate-binding protein 1 (Homo sapiens, UniProt P11940); assay: PABP1 MLLE–PAM2 binding inhibitor potency, dose response, biochemical, fluorescence polarization, FITC-PAM2 peptide (AID 602259); type: functional; conditions: read-out: IC50_Mean
T1 sequence (P11940 whole entry): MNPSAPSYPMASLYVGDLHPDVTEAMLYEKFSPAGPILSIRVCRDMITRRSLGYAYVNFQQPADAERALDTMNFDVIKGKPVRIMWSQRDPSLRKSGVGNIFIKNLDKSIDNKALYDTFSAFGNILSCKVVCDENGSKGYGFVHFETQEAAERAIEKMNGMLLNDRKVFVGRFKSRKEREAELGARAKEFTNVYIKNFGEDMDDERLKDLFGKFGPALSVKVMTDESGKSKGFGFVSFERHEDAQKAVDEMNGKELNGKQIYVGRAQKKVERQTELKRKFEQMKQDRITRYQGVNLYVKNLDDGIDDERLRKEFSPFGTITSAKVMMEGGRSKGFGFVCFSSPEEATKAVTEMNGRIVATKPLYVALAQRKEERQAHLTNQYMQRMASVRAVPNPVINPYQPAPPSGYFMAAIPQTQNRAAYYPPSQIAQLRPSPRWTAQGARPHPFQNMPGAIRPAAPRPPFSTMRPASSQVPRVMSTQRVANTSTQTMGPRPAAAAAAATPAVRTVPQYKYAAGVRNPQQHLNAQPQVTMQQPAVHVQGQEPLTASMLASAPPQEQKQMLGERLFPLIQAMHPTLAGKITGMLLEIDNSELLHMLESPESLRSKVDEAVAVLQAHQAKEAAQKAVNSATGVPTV

[12] = target: T1, Polyadenylate-binding protein 1; assay: PABP1 MLLE–PAM2 interaction inhibitors, dose response, miRNA deadenylation inhibitor project, biochemical, fluorescence polarization, Cy5-PAM2 peptide, secondary (AID 602260); type: functional; conditions: read-out: IC50_Mean
[13] = target: Steroidogenic factor 1 (Homo sapiens, UniProt Q13285); assay: Counterscreen for inverse agonists of the liver receptor homolog-1 (LRH-1; NR5A2): Luminescence-based cell-based high throughput dose response assay to identify inverse agonists of the Steroidogenic Factor 1 Nuclear Receptor (SF1; NR5A1).; type: functional
Sequence of Steroidogenic factor 1 (Q13285 whole entry): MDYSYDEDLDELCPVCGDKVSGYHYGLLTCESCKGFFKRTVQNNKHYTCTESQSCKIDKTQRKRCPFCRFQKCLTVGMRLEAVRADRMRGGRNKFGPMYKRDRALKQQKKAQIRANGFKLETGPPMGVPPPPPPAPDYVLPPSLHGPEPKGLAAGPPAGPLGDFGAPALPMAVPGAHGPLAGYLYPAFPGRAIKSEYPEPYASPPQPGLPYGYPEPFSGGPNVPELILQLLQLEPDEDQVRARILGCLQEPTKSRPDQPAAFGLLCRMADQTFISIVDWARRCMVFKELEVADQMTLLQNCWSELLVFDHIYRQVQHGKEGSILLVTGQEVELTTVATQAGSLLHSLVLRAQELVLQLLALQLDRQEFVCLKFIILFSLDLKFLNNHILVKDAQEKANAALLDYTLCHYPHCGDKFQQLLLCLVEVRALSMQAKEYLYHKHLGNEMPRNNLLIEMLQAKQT

[14] = target: Nuclear receptor subfamily 5 group A member 2 (Homo sapiens, UniProt O00482); type: functional, cell-based;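 note: HEK293T cells transfected with LRH-1 and a StAR promoter luciferase reporter; potency for inhibitors that lower LRH-1 driven reporter light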
Sequence of Nuclear receptor subfamily 5 group A member 2 (O00482 whole entry): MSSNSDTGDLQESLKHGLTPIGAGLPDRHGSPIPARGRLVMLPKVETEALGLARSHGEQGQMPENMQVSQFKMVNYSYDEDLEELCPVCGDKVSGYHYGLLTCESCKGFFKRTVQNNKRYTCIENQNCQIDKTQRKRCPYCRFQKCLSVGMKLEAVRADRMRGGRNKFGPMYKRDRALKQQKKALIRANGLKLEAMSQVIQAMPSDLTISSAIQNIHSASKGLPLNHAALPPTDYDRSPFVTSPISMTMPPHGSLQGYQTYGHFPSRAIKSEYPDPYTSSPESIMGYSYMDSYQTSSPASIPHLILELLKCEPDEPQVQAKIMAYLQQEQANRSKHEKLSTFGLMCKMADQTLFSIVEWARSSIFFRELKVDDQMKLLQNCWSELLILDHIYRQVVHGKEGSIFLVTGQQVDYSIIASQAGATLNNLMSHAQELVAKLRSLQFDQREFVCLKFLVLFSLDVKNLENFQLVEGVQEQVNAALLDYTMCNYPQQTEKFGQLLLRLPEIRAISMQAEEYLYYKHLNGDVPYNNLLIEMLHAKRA

[15] = Luminescence Cell-Based Dose Confirmation HTS to Identify Inhibitors of Platelet Dense Granule Release. [Related pubchem assays: 1663 (Primary HTS), 1678 (Summary of Project)]; type: functional
[16] = StAR promoter reporter inhibition counter-screen, dose response, counter-screen for LRH-1 inverse agonist project, cell-based, luminescence, luciferase reporter (AID 651969); type: functional
[17] = target: Luciferin 4-monooxygenase (Photinus pyralis, UniProt P08659); assay: firefly luciferase enzyme inhibitors, dose response, biochemical, luminescence (AID 1891)
Sequence of Luciferin 4-monooxygenase (P08659 whole entry): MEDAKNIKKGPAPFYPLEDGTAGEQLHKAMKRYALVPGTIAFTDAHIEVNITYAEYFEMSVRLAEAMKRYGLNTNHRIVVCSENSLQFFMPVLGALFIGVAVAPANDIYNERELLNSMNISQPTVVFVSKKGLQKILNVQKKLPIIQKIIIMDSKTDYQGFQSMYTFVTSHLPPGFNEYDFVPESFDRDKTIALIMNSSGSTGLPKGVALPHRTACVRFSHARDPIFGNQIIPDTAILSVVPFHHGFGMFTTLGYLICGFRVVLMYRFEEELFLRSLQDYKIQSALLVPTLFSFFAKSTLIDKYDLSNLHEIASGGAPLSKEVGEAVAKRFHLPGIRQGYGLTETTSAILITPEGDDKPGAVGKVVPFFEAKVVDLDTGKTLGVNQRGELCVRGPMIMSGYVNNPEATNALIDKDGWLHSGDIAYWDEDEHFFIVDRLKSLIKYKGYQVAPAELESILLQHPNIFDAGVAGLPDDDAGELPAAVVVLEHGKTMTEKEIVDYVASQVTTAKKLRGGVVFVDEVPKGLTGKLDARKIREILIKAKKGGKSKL

[18] = target: Nonstructural protein 1 (Influenza A virus, UniProt Q194T2); type: functional, Influenza A virus (A/California/07/2009(H1N1))
[19] = target: T2, Caspase-3 (Homo sapiens, UniProt P42574); assay: SAR Analysis of small molecule inhibitors of Sentrin-specific proteases (SENPs) using a Caspase-3 Selectivity assay. [Related pubchem assays (depositor defined):AID2540, AID2599, AID434973, AID489001]; type: functional
T2 sequence (P42574 whole entry): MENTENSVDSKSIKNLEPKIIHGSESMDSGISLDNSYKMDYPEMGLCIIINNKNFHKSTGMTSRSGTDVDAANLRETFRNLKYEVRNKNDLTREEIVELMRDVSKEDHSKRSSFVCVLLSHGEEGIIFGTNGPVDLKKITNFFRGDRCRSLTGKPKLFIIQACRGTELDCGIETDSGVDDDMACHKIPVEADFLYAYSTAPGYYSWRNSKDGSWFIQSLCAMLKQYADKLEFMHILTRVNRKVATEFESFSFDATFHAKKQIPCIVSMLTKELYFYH

[20] = target: T3, Sentrin-specific protease 7 (Homo sapiens, UniProt Q9BQF6); assay: SENP7 protease inhibitors, SAR follow-up, biochemical, luminescence (AID 504497); type: functional
T3 sequence (Q9BQF6 whole entry): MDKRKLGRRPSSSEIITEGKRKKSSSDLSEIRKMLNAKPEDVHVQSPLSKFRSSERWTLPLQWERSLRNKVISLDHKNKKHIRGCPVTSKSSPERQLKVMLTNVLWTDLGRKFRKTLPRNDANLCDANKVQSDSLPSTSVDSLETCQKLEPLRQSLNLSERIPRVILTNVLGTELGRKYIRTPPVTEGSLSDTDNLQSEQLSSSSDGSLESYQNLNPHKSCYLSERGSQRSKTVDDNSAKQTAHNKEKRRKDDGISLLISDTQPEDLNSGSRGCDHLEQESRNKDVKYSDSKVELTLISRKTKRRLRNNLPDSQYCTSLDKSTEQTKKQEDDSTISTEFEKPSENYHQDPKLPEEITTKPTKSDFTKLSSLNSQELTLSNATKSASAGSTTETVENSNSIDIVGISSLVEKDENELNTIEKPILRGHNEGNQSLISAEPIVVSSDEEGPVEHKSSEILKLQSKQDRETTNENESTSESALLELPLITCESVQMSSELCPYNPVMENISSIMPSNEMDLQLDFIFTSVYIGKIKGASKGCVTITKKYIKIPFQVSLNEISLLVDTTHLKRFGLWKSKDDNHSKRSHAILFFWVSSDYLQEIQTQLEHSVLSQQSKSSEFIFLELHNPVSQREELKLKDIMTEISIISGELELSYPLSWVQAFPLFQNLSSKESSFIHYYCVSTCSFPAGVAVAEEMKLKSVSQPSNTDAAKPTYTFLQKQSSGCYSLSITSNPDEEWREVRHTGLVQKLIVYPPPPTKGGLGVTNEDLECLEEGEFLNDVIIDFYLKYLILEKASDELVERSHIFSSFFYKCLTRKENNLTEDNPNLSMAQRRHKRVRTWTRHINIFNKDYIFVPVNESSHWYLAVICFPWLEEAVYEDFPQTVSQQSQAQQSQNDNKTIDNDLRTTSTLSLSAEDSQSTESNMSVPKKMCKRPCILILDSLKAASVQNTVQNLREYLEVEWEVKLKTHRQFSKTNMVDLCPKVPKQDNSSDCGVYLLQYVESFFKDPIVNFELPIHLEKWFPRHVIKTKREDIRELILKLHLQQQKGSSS

[21] = target: T4, Sentrin-specific protease 6 (Homo sapiens, UniProt Q9GZR1); assay: SAR Analysis of small molecule inhibitors of Sentrin-specific protease 6 (SENP6) using a Luminescent assay. [Related pubchem assays (depositor defined):AID2582, AID2599]; type: functional
T4 sequence (Q9GZR1 whole entry): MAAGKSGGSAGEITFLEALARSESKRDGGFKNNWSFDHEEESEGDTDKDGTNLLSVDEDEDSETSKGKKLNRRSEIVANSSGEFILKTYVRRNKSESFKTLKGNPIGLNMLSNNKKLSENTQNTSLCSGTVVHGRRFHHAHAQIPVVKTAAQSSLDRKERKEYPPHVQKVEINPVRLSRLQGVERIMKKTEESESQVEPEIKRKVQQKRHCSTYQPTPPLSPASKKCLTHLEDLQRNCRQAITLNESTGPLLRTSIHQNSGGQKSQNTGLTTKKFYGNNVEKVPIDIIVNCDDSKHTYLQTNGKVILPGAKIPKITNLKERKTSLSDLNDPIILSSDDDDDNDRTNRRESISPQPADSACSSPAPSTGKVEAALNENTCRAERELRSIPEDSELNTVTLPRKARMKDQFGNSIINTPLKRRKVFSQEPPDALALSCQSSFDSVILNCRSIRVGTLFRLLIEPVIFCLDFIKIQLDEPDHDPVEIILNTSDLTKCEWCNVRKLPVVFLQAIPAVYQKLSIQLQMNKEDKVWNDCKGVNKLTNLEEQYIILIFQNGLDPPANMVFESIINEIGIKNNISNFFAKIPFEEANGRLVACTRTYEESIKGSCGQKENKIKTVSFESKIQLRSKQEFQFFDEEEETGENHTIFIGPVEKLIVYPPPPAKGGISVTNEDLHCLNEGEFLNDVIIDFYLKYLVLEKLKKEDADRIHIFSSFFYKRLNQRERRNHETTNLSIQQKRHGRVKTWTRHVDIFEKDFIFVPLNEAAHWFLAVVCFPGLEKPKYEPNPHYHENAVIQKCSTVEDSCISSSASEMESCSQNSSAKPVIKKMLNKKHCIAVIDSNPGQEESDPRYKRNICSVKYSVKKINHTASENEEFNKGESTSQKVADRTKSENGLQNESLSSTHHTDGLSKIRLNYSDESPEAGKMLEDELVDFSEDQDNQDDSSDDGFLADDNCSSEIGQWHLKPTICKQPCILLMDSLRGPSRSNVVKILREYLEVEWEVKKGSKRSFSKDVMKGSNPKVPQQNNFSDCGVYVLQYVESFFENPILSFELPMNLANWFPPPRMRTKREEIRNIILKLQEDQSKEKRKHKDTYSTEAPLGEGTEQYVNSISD

[22] = target: T3, Sentrin-specific protease 7; type: functional
[23] = target: T4, Sentrin-specific protease 6; type: functional
[24] = target: T2, Caspase-3; type: functional
[25] = target: T5, Sentrin-specific protease 8 (Homo sapiens, UniProt Q96LD8); assay: SENP8 protease inhibitors, SAR follow-up, biochemical, luminescence (AID 504501); type: functional
T5 sequence (Q96LD8 whole entry): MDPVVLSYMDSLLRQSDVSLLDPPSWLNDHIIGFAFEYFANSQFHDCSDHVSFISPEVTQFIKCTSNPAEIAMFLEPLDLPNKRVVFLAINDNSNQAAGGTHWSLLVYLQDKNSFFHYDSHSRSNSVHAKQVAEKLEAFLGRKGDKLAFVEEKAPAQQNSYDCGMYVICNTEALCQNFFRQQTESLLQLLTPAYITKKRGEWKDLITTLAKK

[26] = target: T5, Sentrin-specific protease 8; type: functional

Sequence of 5-hydroxytryptamine receptor 2A (P35363 whole entry): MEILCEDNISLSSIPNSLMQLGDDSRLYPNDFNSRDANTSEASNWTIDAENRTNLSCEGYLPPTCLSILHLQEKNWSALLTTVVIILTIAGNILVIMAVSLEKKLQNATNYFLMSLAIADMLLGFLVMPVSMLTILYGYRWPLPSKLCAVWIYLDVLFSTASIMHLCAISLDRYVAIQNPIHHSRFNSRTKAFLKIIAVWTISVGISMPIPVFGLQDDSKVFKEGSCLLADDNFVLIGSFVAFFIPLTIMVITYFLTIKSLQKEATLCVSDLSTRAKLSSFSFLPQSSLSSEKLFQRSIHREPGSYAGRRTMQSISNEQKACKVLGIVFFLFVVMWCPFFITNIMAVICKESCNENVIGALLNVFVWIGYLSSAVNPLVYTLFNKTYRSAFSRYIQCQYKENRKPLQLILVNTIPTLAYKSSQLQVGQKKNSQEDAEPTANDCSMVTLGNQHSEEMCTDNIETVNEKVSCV

c1ccc(N2CCN(Cc3ccsc3)CC2)nc1
EC50 [1]: 0.125 µM (active) | EC50 [2]: 92.4 µM (inactive)

CC(/C=C1\SC(=S)N(CCC(=O)Nc2cccc(C(=O)O)c2)C1=O)=C\c1ccccc1
IC50 [3]: 73.5 µM (active) | IC50 [4]: 64.9 µM (active) | IC50 [5]: 47.4 µM (active)

CC1=CC(C)(C)Nc2ccc(OC(=O)C(C)N3C(=O)c4ccccc4C3=O)cc21 (centres undefined)
EC50 [6]: 7.55 µM (active) | IC50 [7]: > 80 µM (inactive) | IC50 [8]: 11.1 µM (inactive) | EC50 [9]: 8.18 µM (active)

Cc1cc2cc(CNC(=O)c3cccc([N+](=O)[O-])c3)ccc2[nH]1
EC50 [10]: > 20 µM (inactive) | IC50 [11]: > 66 µM (inactive) | IC50 [12]: > 66 µM (inactive)

COc1ccc(C2(C)NC(=O)N(CC(=O)NCCC3=CCCCC3)C2=O)cc1OC (centres undefined)
IC50 [13]: 5.24 µM (active) | IC50 [14]: 35.9 µM (inactive) | EC50 [15]: > 112 µM (not active) | IC50 [16]: 35.9 µM (inactive) | EC50 [17]: > 112 µM (not active)

CCOc1cc(CN2CCN(c3ncccn3)CC2)ccc1OC
EC50 [1]: 76.1 µM (inactive) | EC50 [2]: 92.5 µM (inactive)

CCCC(=O)NC(c1cccs1)c1cc([N+](=O)[O-])c2cccnc2c1O (centres undefined)
IC50 [3]: 83.6 µM (active) | IC50 [4]: 3.26 µM (active) | IC50 [18]: 13.1 µM (active) | IC50 [5]: 89.3 µM (active)

O=C(Nc1nc2ccccc2s1)c1ccc(Cl)s1
IC50 [19]: 3.28 µM (active) | IC50 [20]: 1.35 µM (active) | IC50 [21]: 2.83 µM (active) | IC50 [22]: 2.16 µM (active) | IC50 [23]: > 100 µM (inactive) | IC50 [24]: 10.5 µM (active) | IC50 [25]: 2.55 µM (active) | IC50 [26]: 1.56 µM (active)

CCCc1cc(=O)oc2cc(OCC(=O)NCCc3ccc(S(N)(=O)=O)cc3)ccc12
IC50 [13]: 7.47 µM (active) | IC50 [14]: 35.9 µM (inactive) | IC50 [16]: 35.9 µM (inactive)

COc1cc(OC)cc(C(=O)Nc2ccc3ccccc3c2)c1
IC50 [19]: 8.7 µM (active) | IC50 [20]: 2.86 µM (active) | IC50 [21]: 7 µM (active) | IC50 [25]: 7.8 µM (active)

COc1ccccc1C(CNC(=O)c1ccc(C)c(S(=O)(=O)N2CCCCC2)c1)N1CCCC1 (centres undefined)
EC50 [10]: > 20 µM (inactive)

COc1cc(OC)cc(-c2noc(/C=C/c3ccccc3)n2)c1
IC50 [19]: 59 µM (active) | IC50 [20]: 21.4 µM (active) | IC50 [21]: > 99 µM (inactive) | IC50 [25]: > 99 µM (inactive)

O=C(NC1CCCCC1)C(C1CC1)n1c(=O)c(-c2ccco2)nc2ccccc21 (centres undefined)
IC50 [8]: 2.17 µM (active)

— ChEMBL document CHEMBL1201862, “PubChem BioAssay data set” (2004)
